What all share (type): cell-based
The target of experiment [1] is T1, Protein cereblon/Son of sevenless homolog 1 (Homo sapiens, UniProt Q07889+Q96SW2). As to the kind of experiment: PROTAC activity at CRBN/SOS1 in human A549 cells assessed as protein degradation at 10 uM incubated for 24 hrs by immunoblot analysis relative to control. A general note: Immunoblotting shows a protein as a band on a membrane.
The target of experiment [2] is T1, Protein cereblon/Son of sevenless homolog 1. Kind of experiment: PROTAC activity at CRBN/SOS1 in human A549 cells assessed as protein degradation at 0.1 uM incubated for 24 hrs by immunoblot analysis relative to control.
Experiment [3] has the same target. As to the kind of experiment: PROTAC activity at CRBN/SOS1 in human A549 cells assessed as protein degradation at 1 uM incubated for 24 hrs by immunoblot analysis relative to control.
Experiment [4] shares this target. As to the kind of experiment: PROTAC activity at CRBN/SOS1 in human A549 cells assessed as half life of SOS1 at 3 uM incubated for 24 hrs by immunoblot analysis.
For experiment [5] the target is unchanged. Kind of experiment: PROTAC activity at CRBN/SOS1 in human A549 cells assessed as protein degradation at 10 uM incubated for 24 hrs by immunoblot analysis.

Calls of active or inactive are those of the source. The calls are words filed in the database; no cut-off is given here.

T1 sequence (Q07889 whole entry, looked up): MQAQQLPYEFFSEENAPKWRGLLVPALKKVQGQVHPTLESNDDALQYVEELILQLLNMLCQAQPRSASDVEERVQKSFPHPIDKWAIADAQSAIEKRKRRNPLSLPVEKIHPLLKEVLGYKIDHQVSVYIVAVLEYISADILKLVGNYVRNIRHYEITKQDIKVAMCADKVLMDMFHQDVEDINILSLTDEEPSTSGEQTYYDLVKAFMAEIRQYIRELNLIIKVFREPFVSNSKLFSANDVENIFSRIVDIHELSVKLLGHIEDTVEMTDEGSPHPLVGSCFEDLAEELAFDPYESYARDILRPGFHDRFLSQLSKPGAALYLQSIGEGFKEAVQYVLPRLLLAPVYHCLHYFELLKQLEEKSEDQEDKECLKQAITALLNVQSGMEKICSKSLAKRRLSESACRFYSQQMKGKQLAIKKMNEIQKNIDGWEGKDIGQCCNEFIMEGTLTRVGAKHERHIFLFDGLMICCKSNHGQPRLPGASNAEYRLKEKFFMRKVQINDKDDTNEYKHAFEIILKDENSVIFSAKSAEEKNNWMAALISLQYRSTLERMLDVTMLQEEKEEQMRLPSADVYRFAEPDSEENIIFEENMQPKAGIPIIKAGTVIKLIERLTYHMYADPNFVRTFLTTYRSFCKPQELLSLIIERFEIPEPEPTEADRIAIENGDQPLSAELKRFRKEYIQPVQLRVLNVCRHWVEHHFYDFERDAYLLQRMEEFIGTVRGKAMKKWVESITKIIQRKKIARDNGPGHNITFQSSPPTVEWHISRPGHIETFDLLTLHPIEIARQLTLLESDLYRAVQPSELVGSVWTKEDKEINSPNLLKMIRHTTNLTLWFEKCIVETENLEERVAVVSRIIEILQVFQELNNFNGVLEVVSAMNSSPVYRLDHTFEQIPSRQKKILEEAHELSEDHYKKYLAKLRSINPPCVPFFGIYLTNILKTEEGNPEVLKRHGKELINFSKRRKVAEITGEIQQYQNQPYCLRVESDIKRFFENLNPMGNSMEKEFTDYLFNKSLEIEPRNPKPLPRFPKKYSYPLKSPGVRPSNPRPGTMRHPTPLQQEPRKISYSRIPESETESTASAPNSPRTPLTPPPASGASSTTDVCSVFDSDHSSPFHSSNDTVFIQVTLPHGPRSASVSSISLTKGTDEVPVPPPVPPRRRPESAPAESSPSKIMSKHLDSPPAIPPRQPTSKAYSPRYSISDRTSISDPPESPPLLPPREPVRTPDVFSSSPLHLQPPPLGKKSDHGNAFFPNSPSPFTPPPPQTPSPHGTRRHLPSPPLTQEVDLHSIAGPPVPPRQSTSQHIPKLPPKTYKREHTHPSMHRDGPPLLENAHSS
T1 sequence (Q96SW2 whole entry, looked up): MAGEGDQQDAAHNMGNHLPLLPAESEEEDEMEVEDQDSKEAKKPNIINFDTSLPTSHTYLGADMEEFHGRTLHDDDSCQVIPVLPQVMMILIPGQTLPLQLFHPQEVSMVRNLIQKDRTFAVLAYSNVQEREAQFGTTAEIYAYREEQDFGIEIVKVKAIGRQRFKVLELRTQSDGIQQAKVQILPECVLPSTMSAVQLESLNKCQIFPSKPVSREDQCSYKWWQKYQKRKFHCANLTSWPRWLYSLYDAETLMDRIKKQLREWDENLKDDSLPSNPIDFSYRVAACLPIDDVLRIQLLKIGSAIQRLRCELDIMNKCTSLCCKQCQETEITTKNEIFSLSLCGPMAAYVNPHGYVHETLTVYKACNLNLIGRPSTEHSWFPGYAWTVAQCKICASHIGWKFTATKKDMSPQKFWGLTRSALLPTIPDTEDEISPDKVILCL

As to `COc1cc2nc(C)nc(N[C@H](C)c3cc(N)cc(C(F)(F)F)c3)c2cc1O[C@H]1CCN(C(=O)CNc2cccc3c2C(=O)N(C2CCC(=O)NC2=O)C3=O)C1` (some centres undefined), the Activity in experiment [1] was 0%; in experiment [2], 1.7%; in experiment [3] it was 2.6%.

As to `COc1cc2nc(C)nc(N[C@H](C)c3cc(N)cc(C(F)(F)F)c3)c2cc1O[C@H]1CCN(C(=O)CCCCCNc2cccc3c2C(=O)N(C2CCC(=O)NC2=O)C3=O)C1` (some centres undefined), the results for the Activity in experiment [1], in experiment [2] and in experiment [3] were 6.7%, 14.3% and 5.7%, respectively.

On to `COc1cc2nc(C)nc(N[C@H](C)c3cc(N)cc(C(F)(F)F)c3)c2cc1O[C@H]1CCN(C(=O)CCCCC(=O)Nc2cccc3c2C(=O)N(C2CCC(=O)NC2=O)C3)C1` (some centres undefined), for which the figures for the Activity in experiment [1], in experiment [2] and in experiment [3] were 10.2%, 5.6% and 1.6%, respectively.

For the compound `COc1cc2nc(C)nc(N[C@H](C)c3cc(N)cc(C(F)(F)F)c3)c2cc1O[C@H]1CCN(C(=O)CCCNc2cccc3c2C(=O)N(C2CCC(=O)NC2=O)C3=O)C1` (some centres undefined), the Activity in experiment [1] came out at 8%; in experiment [2], 0.9%; in experiment [3] it was 0%.

Consider `COc1cc2nc(C)nc(N[C@H](C)c3cc(N)cc(C(F)(F)F)c3)c2cc1O[C@H]1CCN(C(=O)CNc2ccc3c(c2)C(=O)N(C2CCC(=O)NC2=O)C3=O)C1` (some centres undefined), for which the Activity is 1.5% in experiment [1], 0% in experiment [2] and 0% in experiment [3].

`COc1cc2nc(C)nc(N[C@H](C)c3cc(N)cc(C(F)(F)F)c3)c2cc1O[C@H]1CCN(C(=O)CCC(=O)Nc2ccc3c(c2)C(=O)N(C2CCC(=O)NC2=O)C3)C1` (some centres undefined): the Activity worked out at 35.6% in experiment [1], 13.7% in experiment [2] and 20% in experiment [3].

Consider `COc1cc2nc(C)nc(N[C@H](C)c3cc(N)cc(C(F)(F)F)c3)c2cc1O[C@H]1CCN(C(=O)CC(=O)Nc2cccc3c2CN(C2CCC(=O)NC2=O)C3=O)C1` (some centres undefined), for which the Activity in experiment [1] stood at 7%; in experiment [2] it was 1%; in experiment [3], 4.7%.

On to `COc1cc2nc(C)nc(N[C@H](C)c3cc(N)cc(C(F)(F)F)c3)c2cc1O[C@H]1CCN(C(=O)CCCCCCCCC(=O)Nc2ccc3c(c2)C(=O)N(C2CCC(=O)NC2=O)C3)C1` (some centres undefined), for which the values for the Activity in experiment [1], in experiment [2] and in experiment [3] were 0.6%, 0% and 2.5%, respectively.

Regarding `COc1cc2nc(C)nc(N[C@H](C)c3cc(N)cc(C(F)(F)F)c3)c2cc1O[C@H]1CCN(C(=O)CC(=O)Nc2ccc3c(c2)C(=O)N(C2CCC(=O)NC2=O)C3)C1` (some centres undefined), the Activity in experiment [1] amounted to 7.5%; in experiment [2], 8.5%; in experiment [3], 6.1%.

For the compound `COc1cc2nc(C)nc(N[C@H](C)c3cc(N)cc(C(F)(F)F)c3)c2cc1O[C@H]1CCN(C(=O)CCCCCCCCCNc2ccc3c(c2)C(=O)N(C2CCC(=O)NC2=O)C3=O)C1` (some centres undefined), the Activity in experiment [1], in experiment [2] and in experiment [3] was 0% each time.

Regarding `COc1cc2nc(C)nc(N[C@H](C)c3cc(N)cc(C(F)(F)F)c3)c2cc1O[C@H]1CCN(C(=O)CCCCCCCCC(=O)Nc2cccc3c2C(=O)N(C2CCC(=O)NC2=O)C3)C1` (some centres undefined), the Activity in experiment [1] was found to be 18.1%; in experiment [2], 6.4%; in experiment [3] it was 6.7%.

Consider `COc1cc2nc(C)nc(N[C@H](C)c3cc(N)cc(C(F)(F)F)c3)c2cc1O[C@H]1CCN(C(=O)CCCCC(=O)Nc2ccc3c(c2)C(=O)N(C2CCC(=O)NC2=O)C3)C1` (some centres undefined), for which the Activity in experiment [1] turned out to be 37.6%; in experiment [2], 2.7%; in experiment [3], 12.2%.

Take `COc1cc2nc(C)nc(N[C@H](C)c3cc(N)cc(C(F)(F)F)c3)c2cc1O[C@H]1CCN(C(=O)CCCCCCCCC(=O)Nc2cccc3c2CN(C2CCC(=O)NC2=O)C3=O)C1` (some centres undefined): the values for the Activity in experiment [1], in experiment [2] and in experiment [3] were 26.1%, 11.4% and 39.1%, respectively.

For `C[C@@H]1C[C@@H]([C@H](O)CC2CC(=O)NC(=O)C2)C(=O)[C@@H](C)C1`, the T1/2 in experiment [4] is over 24 h.

Consider `COc1cc2nc(C)nc(N[C@H](C)c3cc(N)cc(C(F)(F)F)c3)c2cc1O[C@H]1CCN(C(=O)CC(=O)Nc2ccc3c(c2)CN(C2CCC(=O)NC2=O)C3=O)C1` (some centres undefined), for which the figures for the Activity in experiment [1], in experiment [2] and in experiment [3] were 9.3%, 0% and 4%, respectively.

With `COc1cc2nc(C)nc(N[C@H](C)c3cc(N)cc(C(F)(F)F)c3)c2cc1O[C@H]1CCN(C(=O)CCCCC(=O)Nc2cccc3c2CN(C2CCC(=O)NC2=O)C3=O)C1` (some centres undefined), the Activity in experiment [1] turned out to be 0%; in experiment [2], 1.8%; in experiment [3] it was 0%.

Turning to `COc1cc2nc(C)nc(N[C@H](C)c3cc(N)cc(C(F)(F)F)c3)c2cc1O[C@H]1CCN(C(=O)CCCCCCC(=O)Nc2ccc3c(c2)C(=O)N(C2CCC(=O)NC2=O)C3)C1` (some centres undefined), the results for the Activity in experiment [1], in experiment [2] and in experiment [3] were 8.2%, 7.9% and 37.6%, respectively.

On to `COc1cc2nc(C)nc(N[C@H](C)c3cc(N)cc(C(F)(F)F)c3)c2cc1O[C@H]1CCN(C(=O)CCCCCCC(=O)Nc2cccc3c2C(=O)N(C2CCC(=O)NC2=O)C3)C1` (some centres undefined), for which the results for the Activity in experiment [1], in experiment [2] and in experiment [3] were 3.7%, 2.6% and 0%, respectively.

In the case of `COc1cc2nc(C)nc(N[C@H](C)c3cc(N)cc(C(F)(F)F)c3)c2cc1O[C@H]1CCN(C(=O)CCCCCNc2ccc3c(c2)C(=O)N(C2CCC(=O)NC2=O)C3=O)C1` (some centres undefined), the values for the Activity in experiment [1], in experiment [2] and in experiment [3] were 19.3%, 5.6% and 11.9%, respectively.

For the compound `COc1cc2nc(C)nc(N[C@H](C)c3cc(N)cc(C(F)(F)F)c3)c2cc1O[C@H]1CCN(C(=O)CCCCCCC(=O)Nc2ccc3c(c2)CN(C2CCC(=O)NC2=O)C3=O)C1` (some centres undefined), the Activity was found to be 4.1% in experiment [1], 3.9% in experiment [2] and 57.7% in experiment [3].

Take `COc1cc2nc(C)nc(N[C@H](C)c3cc(N)cc(C(F)(F)F)c3)c2cc1O[C@H]1CCN(C(=O)CCC(=O)Nc2cccc3c2C(=O)N(C2CCC(=O)NC2=O)C3)C1` (some centres undefined): the Activity was found to be 0% in experiment [1], 0% in experiment [2] and 9.6% in experiment [3].

Regarding `COc1cc2nc(C)nc(N[C@H](C)c3cc(N)cc(C(F)(F)F)c3)c2cc1O[C@H]1CCN(C(=O)CCCCCCCCCCC(=O)Nc2cccc3c2CN(C2CCC(=O)NC2=O)C3=O)C1` (some centres undefined), the Activity in experiment [1], in experiment [2] and in experiment [3] was 0% throughout.

With `COc1cc2nc(C)nc(N[C@H](C)c3cc(N)cc(C(F)(F)F)c3)c2cc1O[C@H]1CCN(C(=O)CCCNc2ccc3c(c2)C(=O)N(C2CCC(=O)NC2=O)C3=O)C1` (some centres undefined), the Activity is 9.4% in experiment [1], 4% in experiment [2] and 8.9% in experiment [3].

With `COc1cc2nc(C)nc(N[C@H](C)c3cc(N)cc(C(F)(F)F)c3)c2cc1O[C@H]1CCN(C(=O)CCC(=O)Nc2ccc3c(c2)CN(C2CCC(=O)NC2=O)C3=O)C1` (some centres undefined), the Activity is 2.4% in experiment [1], 0% in experiment [2] and 0% in experiment [3].

For the compound `COc1cc2nc(C)nc(N[C@H](C)c3cc(N)cc(C(F)(F)F)c3)c2cc1O[C@H]1CCN(C(=O)CCCCCCCNc2cccc3c2C(=O)N(C2CCC(=O)NC2=O)C3=O)C1` (some centres undefined), the Activity amounted to 6.1% in experiment [1], 15.3% in experiment [2] and 13% in experiment [3].

On to `COc1cc2nc(C)nc(N[C@H](C)c3cc(N)cc(C(F)(F)F)c3)c2cc1O[C@H]1CCN(C(=O)CCCCCCC(=O)Nc2cccc3c2CN(C2CCC(=O)NC2=O)C3=O)C1` (some centres undefined), for which the Activity in experiment [1] is 65.4%; in experiment [2] it was 2.1%; in experiment [3] it was 31.9%.

On to `COc1cc2nc(C)nc(N[C@H](C)c3cc(N)cc(C(F)(F)F)c3)c2cc1O[C@H]1CCN(C(=O)CCCCCCCNc2ccc3c(c2)C(=O)N(C2CCC(=O)NC2=O)C3=O)C1` (some centres undefined), for which the results for the Activity in experiment [1], in experiment [2] and in experiment [3] were 42.9%, 6.6% and 20.9%, respectively.

On to `COc1cc2nc(C)nc(N[C@H](C)c3cc(N)cc(C(F)(F)F)c3)c2cc1O[C@H]1CCN(C(=O)CCCCCCCC(=O)Nc2cccc3c2CN(C2CCC(=O)N(C)C2=O)C3=O)C1` (some centres undefined), for which, in experiment [5], the outcome was inactive.

Regarding `COc1cc2nc(C)nc(N[C@H](C)c3cc(N)cc(C(F)(F)F)c3)c2cc1O[C@H]1CCN(C(=O)CCCCC(=O)Nc2ccc3c(c2)CN(C2CCC(=O)NC2=O)C3=O)C1` (some centres undefined), the Activity in experiment [1] amounted to 15.6%; in experiment [2] it was 7.1%; in experiment [3], 10%.

Turning to `COc1cc2nc(C)nc(N[C@H](C)c3cc(N)cc(C(F)(F)F)c3)c2cc1O[C@H]1CCN(C(=O)CCCCCCCCC(=O)Nc2ccc3c(c2)CN(C2CCC(=O)NC2=O)C3=O)C1` (some centres undefined), the results for the Activity in experiment [1], in experiment [2] and in experiment [3] were 9%, 0% and 9.5%, respectively.

In the case of `COc1cc2nc(C)nc(N[C@H](C)c3cc(N)cc(C(F)(F)F)c3)c2cc1O[C@H]1CCN(C(=O)CC(=O)Nc2cccc3c2C(=O)N(C2CCC(=O)NC2=O)C3)C1` (some centres undefined), the Activity came out at 9.2% in experiment [1], 0% in experiment [2] and 11.6% in experiment [3].

The record behind these values is ChEMBL document CHEMBL5550100, “Discovery of LHF418 as a new potent SOS1 PROTAC degrader” (Bioorg Med Chem, 2024).
